What was measured:
Type in all cases: in vivo, rat
[1] = test system: type II collagen synthesis and degradation; assay: CIA rats, Z score of type II collagen synthesis and degradation (PIIANP, uCTX-II)
Text: Previously, Garnero et al measured these markers [Type II collagen synthesis and degradation: N-propeptide of type IIA procollagen (PIIANP) and urine CTX-II, respectively] and correlated them to findings on radiographs and arthroscopy of OA patients. […] They explained their observation that these patients have an uncoupling effect between collagen synthesis and degradation, which is leaning more towards the progression of OA.
Adapting their method, we calculated the Z-factor for cartilage synthesis and degradation using data from PIIANP and uCTX-II, respectively. For an intervention to drive the OA catabolic progression towards anabolic or regenerative activities, the Z-score values have to come close to zero.

IL-1β = assay: CIA rats, serum IL-1β ELISA; settings: AMK CIA study; MTX 75 μg/kg, AMK 200 mg/kg oral
Description: The presence of catabolic cytokines IL-1β, TNF-α, or IL-6 was measured using Rat IL-1, TNF-α, and IL-6 Quantikine ELISA kit from R and D Systems (product #: RLB00 for IL-1β, RTA00 for TNF-α, and R6000B for IL-6) as follows: diluted serum was added to a microplate coated with polyclonal IL-1, TNF-α, or IL-6 antibody and allowed to bind for 2 h at room temperature. The microplate was washed thoroughly to remove unbound serum and then a polyclonal enzyme-conjugated IL-1β, TNF-α, or IL-6 antibody was added and allowed to bind for 2 h at room temperature. Washing was repeated, enzyme substrate was added, and the plate was developed for 30 min at room temperature. After the addition of stop solution, the absorbance was read at 450 nm, multiplied by dilution factor, and the concentration of IL-1β/TNF-α/IL-6 calculated based on the absorbance readings of an IL-1β/TNF-α/TL-6 standard curve.

IL-6 = assay: CIA rats, serum IL-6 ELISA; settings: for IL-6: serum
Description: The presence of catabolic cytokines IL-6/TNF-α was measured using the Rat IL-6/TNF-α Quantikine ELISA kit from RandD Systems as follows: undiluted serum was added to a microplate coated with polyclonal IL-6/TNF-α antibody and allowed to bind for 2 hours at room temperature. The microplate was washed thoroughly to remove unbound serum, and then a polyclonal enzyme-conjugated IL-6/TNF-α antibody was added and allowed to bind for 2 hours at room temperature. Washing was repeated, enzyme substrate was added, and the plate was developed for 30 minutes at room temperature. After the addition of stop solution, the absorbance was read at 450 nm and the concentration of IL-6/TNF-α calculated based on the absorbance readings of an IL-6/TNF-α standard curve.

uCTX-II = assay: CIA rats, urinary CTX-II ELISA normalized to creatinine
Description: The presence of the cartilage degradation biomarker uCTX-II was measured using the Rat CTX-II ELISA kit from Mybiosource (product #: MBS2880519) as follows: diluted urine was added to a microplate coated with CTX-II antibody and allowed to bind for 2 h at 37° C. […] The microplate was washed thoroughly to remove unbound urine and antibody before an enzyme-conjugated avidin antibody was added to bind to the biotin-conjugated antibody for specific detection. The avidin antibody was allowed to bind for 1 h at 37° C. Washing was repeated, enzyme substrate was added, and the plate was developed for 30 min at 37° C. After the addition of stop solution, the absorbance was read at 450 nm, multiplied by dilution factor, and the concentration of CTX-II calculated based on the absorbance readings of a CTX-II standard curve. CTX-II amount was normalized to the amount of Creatinine in the urine using the Creatinine Parameter Assay Kit from R and D Systems (product #: […] Absorbance was read at 492 nm and Creatinine amount in urine was calculated based on the absorbance readings of a Creatinine standard curve.

PIIANP = assay: CIA rats, PIIANP ELISA (synovial fluid or serum)
Description: The presence of cartilage regeneration/rebuilding biomarker PIIANP was measured using the Rat Procollagen Type IIA N-Prop (PIIANP) ELISA kit from Mybiosource (product #: MBS9399069) as follows: synovial fluid was added to a microplate coated with PIIANP antibody as well as an HRP-conjugated PIIANP antibody and allowed to bind for one hour at 37° C. The microplate was thoroughly washed, and a Chromagen solution was added and allowed to bind for 15 minutes at 37° C. After the addition of stop solution, the absorbance was read at 450 nm and the concentration of PIIANP calculated based on the absorbance readings of a PIIANP standard curve.
The level of cartilage regeneration biomarker PIIANP was measured using the Rat Procollagen Type IIA N-Prop (PIIANP) ELISA kit from Mybiosource (product #: MBS9399069) as follows: undiluted serum was added to a microplate coated with PIIANP antibody as well as an HRP-conjugated PIIANP antibody and allowed to bind for one hour at 37° C. The microplate was thoroughly washed, and a Chromagen solution was added and allowed to bind for 15 minutes at 37° C. After the addition of stop solution, the absorbance was read at 450 nm and the concentration of PIIANP calculated based on the absorbance readings of a PIIANP standard curve.

CIA rats = assay: CIA rats, ankle joint histopathology (modified Mankin)
Description: For histopathological examination, the ankle joints were kept in 10% formalin for 72 h. The fixed specimens were then decalcified with Calci-Clear Rapid for one and a half days and embedded in paraffin. Standardized 5 μm serial sections were obtained at the medial and lateral section in the sagittal plane of the joint and were stained with hematoxylin and eosin (HE) and Safranin O-fast green to enable evaluation of proteoglycan content. A modified Mankin system (Mankin et al., 1971) was used to score structural and cellular alterations of joint tissues resulting from disease progression and/or treatment efficacy. The histological analysis was conducted at Nationwide Histology and slides were examined by a certified pathologist.
At necropsy, the ankle joint was carefully dissected out, fixed in 10% buffered formalin and sent to Nationwide Histology (Veradale, Wash., USA) for further histopathology analysis. The fixed specimens were then decalcified with Calci-Clear Rapid for one and a half days and embedded in paraffin. Standardized 5 m serial sections were obtained from each rat and stained with hematoxylin and eosin (HE) and Safranin O-fast green to enable evaluation of proteoglycan content. A modified Mankin system (Mankin et al., 1981) was used to score structural and cellular alterations of articular components as indications of disease progression and/or treatment efficacy. The histological analysis was conducted by a certified Pathologist at Nationwide Histology.

[2] = AMK CIA study, MTX 75 μg/kg, AMK 200 mg/kg oral
[3] = AMK study, MTX (75 μg/mL), AMK (200 mg/kg)
[4] = AP study, MTX (0.5 mg/mL), AP (200 mg/kg)
[5] = score 0-6, AMK study, MTX (75 μg/mL), AMK (200 mg/kg)
[6] = score, AP study, MTX (0.5 mg/mL), AP (200 mg/kg)

CN(Cc1cnc2nc(N)nc(N)c2n1)c1ccc(C(=O)N[C@@H](CCC(=O)O)C(=O)O)cc1 [Methotrexate]
Z score, Imbalance (catabolic − anabolic), Mean ± SE ([1]; (CTX-II)-(PIIANP), Methotrexate 0.5 mg/kg (printed), AMK 200 mg/kg): 1.30 ± 0.33 | Z score, Regeneration, Mean ± SE ([1]; from PIIANP, SDs from mean of normal control rats, Methotrexate 0.5 mg/kg (printed), AMK 200 mg/kg): −0.90 ± 0.16 | improvement in driving OA progression to normalcy relative to vehicle treated CIA rats ([1]; from imbalance Z score): 56.4% | Z score, Degradation, Mean ± SE ([1]; from uCTX-II, SDs from mean of normal control rats, Methotrexate 0.5 mg/kg (printed), AMK 200 mg/kg): 0.39 ± 0.34 | serum IL-1β inhibition compared to diseased control (IL-1β): 71.5% | serum IL-6 inhibition compared to diseased control (IL-6; [2]): 78.6% | IL-6 (IL-6; [3]): 10.23 ± 7.37 pg/mL | IL-6 (IL-6; AP study, MTX (0.5 mg/mL), AP (200 mg/kg) oral 3 weeks): 3.33 ± 6.44 pg/mL | inhibition of urine CTX-II (cartilage degradation) vs vehicle-treated CIA (uCTX-II; [2]): 26.4% | CTX-II (uCTX-II; urine, CIA rats, MTX 75 μg/mL (printed), AMK 200 mg/kg): 2500.8 ± 355.9 ng/g creatinine | increase in synovial PIIANP vs vehicle-treated CIA (PIIANP; [2]): 69.8% | increase in serum PIIANP vs CIA + vehicle (PIIANP; AP CIA study, Methotrexate 0.5 mg/kg, AP 200 mg/kg oral): 47% | PIIANP (PIIANP; serum, AP study, MTX (0.5 mg/mL), AP (200 mg/kg) oral 3 weeks): 6.53 ± 1.4 ng/mL | PIIANP (PIIANP; synovial fluid, CIA rats, MTX 75 μg/mL (printed), AMK 200 mg/kg): 0.43 ± 0.16 ng/mg | Bone Erosion, percent inhibition against vehicle treated disease model (CIA rats; [3]): (66.3%) | Cartilage destruction, percent inhibition against vehicle treated disease model (CIA rats; [3]): (32.6%) | GAG Loss, percent inhibition against vehicle treated disease model (CIA rats; [3]): (50.8%) | Inflammation, percent inhibition against vehicle treated disease model (CIA rats; [3]): (36.0%) | Bone Erosion, percent inhibition against vehicle treated disease model (CIA rats; [4]): (100%) | Cartilage destruction, percent inhibition against vehicle treated disease model (CIA rats; [4]): (98.3%) | GAG Loss, percent inhibition against vehicle treated disease model (CIA rats; [4]): (94.5%) | Inflammation, percent inhibition against vehicle treated disease model (CIA rats; [4]): (100%) | Bone Erosion (Mean ± SE) (CIA rats; [5]): 1.13 ± 0.46 | Cartilage destruction (Mean ± SE) (CIA rats; [5]): 2.90 ± 0.63 | GAG Loss (Mean ± SE) (CIA rats; [5]): 2.04 ± 0.62 | Inflammation (Mean ± SE) (CIA rats; [5]): 3.25 ± 1.02 | Bone Erosion (Mean ± SE) (CIA rats; [6]): 0.00 ± 0.00 | Cartilage destruction (Mean ± SE) (CIA rats; [6]): 0.13 ± 0.05 | GAG Loss (Mean ± SD) (CIA rats; [6]): 0.21 ± 0.17 | Inflammation (Mean ± SE) (CIA rats; [6]): 0.00 ± 0.00

Source: patent publication US20220000964A1, “Compositions and Methods for Regulating Homeostasis of Chondrocytes, Extracellular Matrix, Articular Cartilage, and Phenotype of Arthritis” (Unigen, Inc., priority 2020, published 2022)
